Patent publication US6589570B1, “Pharmaceutical formulation useful for the treatment of hepatitis B, hepatitis C and other viral infections of the liver and a process for its preparation” (priority 1999, dated 2003)

How the values were obtained:
cultured rat hepatocytes = details: cited from earlier work
isolated rat hepatocytes = assay: Anti hepatotoxic potential, β-galactosamine challenged isolated rat hepatocytes; format: cell-based; details: 0.5 mM
Experimental: The liver was perfused through the portal vein with 30-50 ml of cold sodium citrate (0.027M) in calcium free lockets solution. During the perfusion, the liver gets blanched and fully distended. Perfusion is generally completed within 5 minutes of anaesthetizing the animal. The perfused liver is excised and washed well with the perfusion fluid and pressed in folds of sterile filter paper, weighed and cut into several small pieces and with a pair of scissors. A known wet weight of the liver (usually between 2-6 gm) was transferred with 5 volume of cold 0.25M sucrose into a sterile glass homogenizer and finely grounded. The cell suspension was filtered once, without application of pressure through 200-mesh brass gauze to remove strands of connective tissue and clumps of cells. The suspension contained some cell debris and blood cells at this stage, which were removed by centrifugation at a low speed (100-200 g) for 2 minutes. After removal of the supernatant, the cell sediment was resuspended in a known volume of the minimum essential medium for further studies. […] The cells, which have not taken the dye, are live cells, which are counted. […] Four sets of isolated rat hepatocyte cultures were put up. […] Set III with 0.5 mM concentration of β-galactosamine, a known hepatotoxic agent and set IV was treated with β-galactosamine and then protected with the formulation of the present invention. […]

| SMILES | CCl4 or galatosamine induced cytotoxicity to cultured rat hepatocytes (cultured rat hepatocytes) | hepatotoxicity on isolated rat hepatocytes (isolated rat hepatocytes) |
| --- | --- | --- |
| COC[C@@H]1Cc2cc(OC)c3c(c2[C@H](c2ccc(OC)c(OC)c2)[C@H]1COC)OCO3 [Hypo phyllanthin] | reduced |  |
| COC[C@@H](Cc1ccc(OC)c(OC)c1)[C@@H](COC)Cc1ccc(OC)c(OC)c1 [Phyllanthin] | reduced |  |
| N[C@@H]1[C@@H](O)[C@@H](O)[C@@H](CO)O[C@H]1O [β-galactosamine] |  | profound hepatotoxic chemical |
